# Data taken from patent US7576088B2, “Benzodioxole derivatives” (Hoffman-La Roche Inc., priority 2002, dated 2009).
# Like-named read-outs stand apart in the source and are kept apart here.
# How the values were obtained:
# [1] = target: T1, human cannabis CB1 receptor (Homo sapiens, UniProt P21554); test: Affinity for cannabinoid CB1 receptors, [3H]-CP-55,940 radioligand binding on HEK cell membranes
# T1 construct: expressed in transfected cells; host or cells: human embryonic kidney (HEK) cells, Semliki Forest Virus system
# Method: The affinity of the compounds of the invention for cannabinoid CB1 receptors was determined using membrane preparations of human embryonic kidney (HEK) cells in which the human cannabis CB1 receptor is transiently transfected using the Semliki Forest Virus system in conjunction with [3H]-CP-55,940 as radioligand. After incubation of a freshly prepared cell membrane preparation with the [3H]-ligand, with or without addition of compounds of the invention, separation of bound and free ligand was performed by filtration over glassfiber filters. Radioactivity on the filter was measured by liquid scintillation counting.
# [2] = doses of 5, 10 and 20 mg daily; cited from earlier work
# [3] = affinity for the CB1 receptor, read-out: IC50
# T1 sequence (P21554 whole entry): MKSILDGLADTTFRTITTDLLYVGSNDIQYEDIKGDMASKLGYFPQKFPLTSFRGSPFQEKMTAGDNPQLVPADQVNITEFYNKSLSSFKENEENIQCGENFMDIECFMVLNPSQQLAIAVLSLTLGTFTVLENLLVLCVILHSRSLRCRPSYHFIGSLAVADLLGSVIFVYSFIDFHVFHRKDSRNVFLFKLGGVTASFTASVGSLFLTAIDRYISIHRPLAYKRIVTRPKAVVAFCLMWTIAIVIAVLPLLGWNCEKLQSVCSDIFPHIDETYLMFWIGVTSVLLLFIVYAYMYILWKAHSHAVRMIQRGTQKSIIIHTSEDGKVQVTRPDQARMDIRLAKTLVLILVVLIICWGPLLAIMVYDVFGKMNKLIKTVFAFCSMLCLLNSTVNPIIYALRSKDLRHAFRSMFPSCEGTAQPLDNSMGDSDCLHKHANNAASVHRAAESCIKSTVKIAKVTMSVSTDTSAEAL
Compound,"IC50 [1, 3]",also measured
"O=S(=O)(c1ccc2c(c1)OC(c1ccc(F)cc1)(c1ccc(Cl)cc1Cl)O2)N1CCCCC1 (racemic) [Example 39, 1-[2-(2,4-dichloro-phenyl)-2-(4-fluoro-phenyl)-benzo[1,3]dioxole-5-sulfonyl]-piperidine]",< 2 µM,–
"Cc1c(C(=O)NN2CCCCC2)nn(-c2ccc(Cl)cc2Cl)c1-c1ccc(Cl)cc1 [SR 141716, Rimonabant]",–,body weight compared to placebo [2]: significantly reduced body weight
"Fc1ccc(C2=CCN(Cc3ccc4c(c3)OC(c3ccccc3)(c3ccccc3)O4)CC2)cc1 [Example 75, 1-(2,2-diphenyl-benzo[1,3]dioxol-5-yl-methyl)-4-(4-fluoro-phenyl)-1,2,3,6-tetrahydro-pyridine]",< 2 µM,–
"O=C(c1cc2c(cc1F)OC(c1ccc(F)cc1)(c1ccc(Cl)cc1Cl)O2)N1CCOCC1 (stereo not drawn) [Example 108, [2-(2,4-dichloro-phenyl)-6-fluoro-2-(4-fluoro-phenyl)-benzo[1,3]dioxol-5-yl]-morpholin-4-yl-methanone]",< 2 µM,–
"O=C(c1ccc2c(c1)OC(c1ccccc1)(c1ccccc1)O2)N1CCC2(CC1)OCCO2 [Example 46, (1,4-dioxa-8-aza-spiro[4.5]dec-8-yl)-(2,2-diphenyl-benzo[1,3]dioxol-5-yl)-methanone]",–,IC50 [1]: < 2 µM
"O=C(c1ccc2c(c1F)OC(c1ccccc1)(c1ccccc1)O2)N1CCOCC1 [Example 65, (4-fluoro-2,2-diphenyl-benzo[1,3]dioxol-5-yl)-morpholin-4-yl-methanone]",< 2 µM,–
O=C(c1cc2c(cc1F)OC(c1ccccc1F)(c1ccccc1F)O2)N1CC[C@H](O)C1 [Example 271],< 2 µM,–
"O=C(c1cc2c(cc1F)OC(c1ccc(F)cc1)(c1ccc(F)cc1)O2)N1CCCC1 [Example 164, [6-fluoro-2,2-bis-(4-fluoro-phenyl)-benzo[1,3]dioxol-5-yl]-pyrrolidin-1-yl-methanone]",< 2 µM,–
"O=S(=O)(c1ccc2c(c1)OC(c1ccccc1)(c1ccccc1)O2)N1CCc2ccccc2C1 [Example 18, 2-(2,2-diphenyl-benzo[1,3]dioxole-5-sulfonyl)-1,2,3,4-tetrahydro-isoquinoline]",< 2 µM,–
O=C(c1cc2c(cc1F)OC(c1ccccc1Cl)(c1ccccc1Cl)O2)N1CCOCC1,–,melting point: 98 °C
"O=S(=O)(c1ccc2c(c1)OC(c1ccccc1)(c1ccccc1)O2)N1CCN(c2ccc(Cl)cc2Cl)CC1 [Example 4, 1-(2,4-dichloro-phenyl)-4-(2,2-diphenyl-benzo[1,3]dioxole-5-sulfonyl)-piperazine]",< 2 µM,–
"O=S(=O)(NCc1ccccc1)c1ccc2c(c1)OC(c1ccccc1)(c1ccccc1)O2 [Example 20, 2,2-diphenyl-benzo[1,3]dioxole-5-sulfonic acid benzylamide]",< 2 µM,–
O=S(=O)(c1cc2c(cc1F)OC1(O2)c2ccccc2CCc2ccccc21)N1CCOCC1 [Example 234],< 2 µM,–
"O=S(=O)(c1ccc2c(c1)OC(c1ccccc1)(c1ccccc1)O2)N1CCCN(c2ncc(C(F)(F)F)cc2Cl)CC1 [Example 22, 1-(3-chloro-5-trifluoromethyl-pyridin-2-yl)-4-(2,2-diphenyl-benzo[1,3]dioxole-5-sulfonyl)-[1,4]diazepane]",< 2 µM,–
O=C(c1ccc2c(c1)OC(c1cccc(Cl)c1)(c1cccc(Cl)c1)O2)N1CCCCC1,–,melting point: 54 °C
